Measured values as given in the OligoGym collection.
Several values for one entry are separate records, joined by “and”; a condition that tells them apart may be missing. Equal values may be shown once. After the bases stand the sugars from the 5' end (letter, count) and the backbone: PS all phosphorothioate, else s phosphorothioate and o phosphodiester by linkage. Methylation of C is not given here. e = 2'-O-(2-methoxyethyl) (MOE); k = constrained ethyl (cEt); d = 2'-deoxy (DNA)

Biological target: IRF4
Conditions: ASO

Sequence	target mRNA inhibition (SK-MEL-28, 4 µM)	target mRNA inhibition (MM.1R, 1 µM)	further results
CTTCCCTGAGAAATGG (sugars k3 d10 k3, PS)	50%	–	target mRNA inhibition (MM.1R, 0.074 µM): 6%; target mRNA inhibition (MM.1R, 0.222 µM): 2%; target mRNA inhibition (MM.1R, 0.666 µM): 1%; target mRNA inhibition (MM.1R, 2 µM): 4%; target mRNA inhibition (SK-MEL-28, 0.185 µM): 16%; target mRNA inhibition (SK-MEL-28, 5 µM): 60%; target mRNA inhibition (SK-MEL-28, 15 µM): 85%
AACCGCTGGCAGGTGG (sugars k3 d10 k3, PS)	40%	–	–
CAAGTGTCTAAAGTCC (sugars kkdddddddddkekek, PS)	–	15% and 6%	–
GACTACACCTACACAG (sugars k3 d10 k3, PS)	32%	–	–
ATCTGTATAGTTCTCA (sugars k3 d10 k3, PS)	–	55%	–
TCAACCGCTGAACTGA (sugars k3 d10 k3, PS)	35%	–	–
TTGAAAGATTCAGCCT (sugars k3 d10 k3, PS)	3%	–	–
AAGTGTCTTCCACAAG (sugars k3 d10 k3, PS)	54%	–	–
AACAGATAACGAGGTG (sugars k3 d10 k3, PS)	-4%	–	–
AGGCACCTTCGCGGCC (sugars k3 d10 k3, PS)	18%	–	–
CACACTGCCGTGATCT (sugars k3 d10 k3, PS)	–	20%	–
GGACACTTTTAGAGAG (sugars k3 d10 k3, PS)	62%	–	–
GGATTTCCGGGTGTGG (sugars k3 d10 k3, PS)	61%	–	–
GCAGAAACAGCCCACT (sugars k3 d10 k3, PS)	41%	–	–
GGATAGATCTGTGGTA (sugars k3 d10 k3, PS)	49%	–	–
CAGAATGGCGAGTTGG (sugars k3 d10 k3, PS)	–	31%	–
TGTCAATACTGAAAGG (sugars k3 d10 k3, PS)	36%	–	–
ATCAGTCTCAAAAACG (sugars k3 d10 k3, PS)	41%	–	–
ACTAAATTCTAGTTTG (sugars k3 d10 k3, PS)	0%	–	–
GCAACACGGGAATTTC (sugars k3 d10 k3, PS)	66% and 74%	–	–
CCCATTTAATCTGTCT (sugars k3 d10 k3, PS)	33%	–	–
CCGTCCCAGTAGATCC (sugars k3 d10 k3, PS)	25%	–	–
ACTGTAAGGGCTGCTC (sugars k3 d10 k3, PS)	69%	–	–
ATTATATACTGGTTGG (sugars kdddddddddkekeke, PS)	–	27%	–
CTCTCCAGGTGGCTCA (sugars k4 d8 k4, PS)	12%	–	–

Sequence	target mRNA inhibition (SK-MEL-28, 4 µM)	target mRNA inhibition (MM.1R, 1 µM)	further results
GAGCCTGGGACTCAGG (sugars k3 d10 k3, PS)	49%	–	target mRNA inhibition (MM.1R, 0.074 µM): 3%; target mRNA inhibition (MM.1R, 0.222 µM): 4%; target mRNA inhibition (MM.1R, 0.666 µM): -3%; target mRNA inhibition (MM.1R, 2 µM): 7%; target mRNA inhibition (SK-MEL-28, 0.185 µM): 7%; target mRNA inhibition (SK-MEL-28, 5 µM): 58%; target mRNA inhibition (SK-MEL-28, 15 µM): 87%
CGCCGGAGGCCGCCGT (sugars k3 d10 k3, PS)	3%	–	–
AGCAGTGATGTCAGGT (sugars kddddddddddkekek, PS)	–	77% and 67% and 68%	target mRNA inhibition (MM.1R, 0.0625 µM): 37%; target mRNA inhibition (MM.1R, 0.25 µM): 50%; target mRNA inhibition (MM.1R, 4 µM): 84%
AAATCACTTGTCTTGG (sugars k3 d10 k3, PS)	49%	–	–
GGAAGTTTACACTGGA (sugars e1 k2 d9 k2 e2, PS)	–	55%	target mRNA inhibition (H929, 0.04 µM): 38% and 36%; target mRNA inhibition (KMS11, 0.2 µM): 75% and 80%; target mRNA inhibition (MM.1R, 0.074 µM): 13%; target mRNA inhibition (MM.1R, 0.222 µM): 35%; target mRNA inhibition (MM.1R, 0.666 µM): 66%; target mRNA inhibition (MM.1R, 2 µM): 87%
GTGTCTAAAGTCCCAT (sugars k3 d10 k3, PS)	–	18% and 28%	–
ATTTATACTGTCTGGT (sugars k3 d10 k3, PS)	49%	–	–
TTTTGGCTCCCTCAGG (sugars k3 d10 k3, PS)	–	-3%	–
AGTTAAGTACTTGGAC (sugars k3 d10 k3, PS)	42%	–	–
TACTTAAGCAAGTGGA (sugars k3 d10 k3, PS)	75% and 71%	–	–
CCAGAAGTACGAGCAC (sugars k3 d10 k3, PS)	–	-3%	–
GTTCAGTGTGTTGACC (sugars k3 d10 k3, PS)	–	30%	–
TCACAGTGATCATCAA (sugars k3 d10 k3, PS)	43%	–	–
TGCTTGAATTCCTTGA (sugars k3 d10 k3, PS)	67%	23% and 25%	target mRNA inhibition (MM.1R, 0.0625 µM): -6% and -14%; target mRNA inhibition (MM.1R, 0.074 µM): 13%; target mRNA inhibition (MM.1R, 0.222 µM): 12%; target mRNA inhibition (MM.1R, 0.25 µM): 1% and -8%; target mRNA inhibition (MM.1R, 0.666 µM): 23%; target mRNA inhibition (MM.1R, 2 µM): 39%; target mRNA inhibition (MM.1R, 4 µM): 53% and 68%
CACGGACGAACGCGCA (sugars k3 d10 k3, PS)	-2%	–	–
TTCAGTTGTAAATGAG (sugars k3 d10 k3, PS)	56%	–	–
GGCTCCCTCAGGAACA (sugars k3 d10 k3, PS)	19%	–	–
AATGTCACGCCCGCAA (sugars k3 d10 k3, PS)	19%	–	–
ATGCATAACACGGTGT (sugars k3 d10 k3, PS)	45%	–	–
ATCTAATCCACAATCA (sugars k3 d10 k3, PS)	30%	–	–
AACCGCTGAACTGAAA (sugars k3 d10 k3, PS)	13%	–	–
ACCTACCTGCCCTTGG (sugars k3 d10 k3, PS)	28%	–	–
GACCAGAACTAATGTC (sugars k3 d10 k3, PS)	–	-27%	–
AGCCTTCACGCACCAT (sugars k3 d10 k3, PS)	30%	–	–
GACAGTGACTTGCATC (sugars kkddddddddddkeke, PS)	–	25%	–

Sequence	target mRNA inhibition (SK-MEL-28, 4 µM)	target mRNA inhibition (MM.1R, 1 µM)	further results
AGCATAAAAGGTTCCT (sugars k3 d10 k3, PS)	45%	–	–
AAGTGGACCCCATTGC (sugars k3 d10 k3, PS)	31%	–	–
GGCTACAGGCACGGCT (sugars k3 d10 k3, PS)	42%	–	–
TTCCAGCAAGACCTAA (sugars k3 d10 k3, PS)	27%	–	–
GTAGGAGTGTAACTGA (sugars k3 d10 k3, PS)	41%	–	–
CCATATTGGAAACCAG (sugars k3 d10 k3, PS)	–	10%	–
CTTGAAAAGCCAATGC (sugars k3 d10 k3, PS)	58%	–	–
GTTCACGAAACACAGT (sugars k3 d10 k3, PS)	63%	–	–
CGCACTAAGTGGGCTC (sugars k3 d10 k3, PS)	14%	–	–
AAGTGTCTAAAGTCCC (sugars kddddddddddkekek, PS)	–	-1%	–
AATGTGTATTACTCTT (sugars kkddddddddddkeke, PS)	–	8% and 22%	–
ACTTAAGCTAAACTCC (sugars k3 d10 k3, PS)	21%	–	–
AACTAGTCGACAGCTA (sugars k3 d10 k3, PS)	–	-7%	–
TGACATAAAGGACCCC (sugars k3 d10 k3, PS)	48%	–	–
AAACGAGAACGCACGG (sugars k3 d10 k3, PS)	–	9%	–
GATTAATTCTCCTATG (sugars k3 d10 k3, PS)	–	-19%	–
CCGCAAAAGAAACGAG (sugars k3 d10 k3, PS)	–	-7%	–
TTATATACTGGTTGGT (sugars kkdddddddddekeke, PS)	–	64%	–
ACGGAAGTTTACACTG (sugars e1 k2 d9 k2 e2, PS)	–	17%	–
TAGGAGTGTAACTGAG (sugars k3 d10 k3, PS)	37%	–	–
AACCGGTAGAGTGAGA (sugars k3 d10 k3, PS)	6%	–	–
GCATGCAAGCCCGTTA (sugars k3 d10 k3, PS)	-1%	–	–
TTGTCATGGTGTAGGG (sugars k3 d10 k3, PS)	41%	–	–
AATGATGGCAGTCTAC (sugars k3 d10 k3, PS)	33%	–	–
TGCTAGGATTCCTAAC (sugars k3 d10 k3, PS)	26%	–	–

Sequence	target mRNA inhibition (SK-MEL-28, 4 µM)	target mRNA inhibition (MM.1R, 1 µM)	further results
GGCTCCTACATGTTTG (sugars k3 d10 k3, PS)	-46%	–	–
GGGCCCCGTGAAACAG (sugars k3 d10 k3, PS)	33%	–	–
AGCCAGTGGCTGAAAC (sugars k3 d10 k3, PS)	21%	–	–
AGCTTGATAAAGGCTG (sugars kkkddddddddkekek, PS)	–	-8%	–
ACAGGCGCGGACGCAC (sugars k3 d10 k3, PS)	20%	–	–
GACAGTGACTTGCATC (sugars kkdddddddddkdkdk, PS)	–	-7%	–
AGTATGAGAAACGGCC (sugars kkddddddddddkeke, PS)	–	9%	–
TGATGGAGAAACGAGC (sugars k3 d10 k3, PS)	–	-2%	–
CCTTAGGAACGAAGAG (sugars k3 d10 k3, PS)	–	-6%	–
GCTCATGCCGAACTCT (sugars k4 d8 k4, PS)	30%	–	–
TTAAGATTTATGTTCC (sugars k3 d10 k3, PS)	64%	–	–
CCACAGTGAAGTCGGG (sugars k3 d10 k3, PS)	–	6%	–
GCGAAGAATTTTAGCA (sugars k3 d10 k3, PS)	12%	–	–
GGCATACAGTGTGATT (sugars k3 d10 k3, PS)	25%	–	–
TCTACAAGGTCTGAGT (sugars k3 d10 k3, PS)	57%	–	–
CCACTGTTAAAGCAGC (sugars k3 d10 k3, PS)	66%	–	–
GAAAAGCAGCGAAAAG (sugars k3 d10 k3, PS)	2%	–	–
CAAAATGGTGTGTAAG (sugars k3 d10 k3, PS)	25%	–	–
AAGGGAACAGATAGTT (sugars k3 d10 k3, PS)	20%	–	–
TGCTTTGCAGCATTGG (sugars k3 d10 k3, PS)	–	30%	–
CCGGAAGAAGGCACCT (sugars k3 d10 k3, PS)	17%	–	–
GCCTGGGAGTCCCCGG (sugars k3 d10 k3, PS)	18%	–	–
